Experimental data reported in the OPERA property sets (Mansouri et al. 2018).
Where a SMILES comes first, the peptide text is derived from it.

logP | SMILES
-2.21 | CC(N)C(=O)NC(Cc1c[nH]c2ccccc12)C(=O)O (stereo not given)
2.66 | Nc1nc(N)c2c(N3CCCCC3)cccc2n1
2.83 | Clc1ccc(/C=N/OCCc2nc(-c3ccccc3)n[nH]2)cc1
-2.19 | CC(NC(=O)C(NC(=O)C(N)Cc1ccccc1)C(C)C)C(=O)O (stereo not drawn) (H-Phe-Val-Ala-OH; configuration not given here)
3 | COc1ccc(CCNCC(O)COc2ccc(CCc3nc(Br)c[nH]3)cc2)cc1OC (stereo not given)
1.16 | CC(CO)CCNc1ncnc2nc[nH]c12 (stereo not given)
1.1 | CC(C)(C)[N+]([O-])=Cc1ccc(C(=O)O)cc1
2.66 | COc1c2oc(=O)ccc2cc2ccsc12
4.9 | COc1ccc(C2Cc3c(cccc3C(F)(F)F)N(CCN(C)C)C(=O)C2OC(C)=O)cc1 (stereo not given)
2.73 | Cc1cccc(C)c1CCn1ccnc1
3.47 | c1ccc(Nc2nnc(Cn3ccc4ccccc43)s2)cc1
2.44 | OC(CNCCc1ccccc1)CON=C(C1CC1)C1CC1 (stereo not given)
-0.8 | O=[n+]1cnn([O-])c2ccccc21
3.3 | COc1ccc2cc(C(C)C(=O)OCCCOC(C)=O)ccc2c1 (stereo not given)
1.59 | CC(C)NC(=NC#N)NS(=O)(=O)c1cnccc1Nc1cccc(F)c1
-0.97 | CCC(C)C(N)C(=O)NC(C(=O)NC(C(=O)NC(C(=O)NCC(=O)O)C(C)CC)C(C)CC)C(C)CC (stereo not given) (H-IIIIG-OH; configuration not given here)
2.35 | COC(=O)c1ccc(Cl)cc1[N+](=O)[O-]
4.64 | CC(C)(C)c1cc(O)cc(C(C)(C)C)c1
4.47 | CCCC(=NOCC)C1=C(O)CC2(CCC(CC)CC2)OC1=O (stereo not given)
2.3 | C#CCNc1nc(CCC)nc(N2CCOCC2)n1
4.32 | CN(C)CCOc1cc2c(c3ccccc13)-c1ccccc1C2=O
0.68 | OCCCCCCCNc1ncnc2c1ncn2C1OC(CO)C(O)C1O (stereo not given)
3.08 | Cc1cc(=O)oc2c1ccc1occ(C)c12

logP | SMILES
0.84 | CC(C)C(=O)OCC1OC(n2cc(I)c(=O)[nH]c2=O)CC1O (stereo not given)
1.81 | CC(C)C1(C)N=C(c2ncc3ccccc3c2C(=O)O)NC1=O (stereo not given)
4.65 | O=C(O)Cc1c(O)cccc1Nc1c(Cl)cccc1Cl
1.88 | O=[N+]([O-])c1cc(F)ccc1O
-1.65 | CCC(C)C(NC(=O)C(N)CC(C)C)C(=O)NC(C(=O)NCC(=O)NC(C)C(=O)O)C(C)CC (stereo not given) (H-LIIGA-OH; configuration not given here)
3.03 | Cc1ccc(CO)c(C=NNC(=O)c2ccc([N+](=O)[O-])cc2)c1O
1.68 | COc1cc2ccncc2cc1OC
1.01 | COC(=O)c1ccc(OP(=O)(NC(C)C(=O)OC)OCC2C=CC(n3cc(C)c(=O)[nH]c3=O)O2)cc1 (stereo not given)
1.75 | O=c1cc(CSC2CCCCC2)occ1O
5.81 | S=C=NCCCCCCCCc1ccccc1
-0.65 | CNc1ccncc1S(=O)(=O)NC(=NC#N)NC(C)C
3.91 | O=c1cc(-c2cccc(Cl)c2)oc2ccccc12
1.92 | c1ccc2c(c1)OCC(Cc1ncc[nH]1)O2 (stereo not given)
2.25 | O=[N+]([O-])c1ccc(-n2cccn2)cc1
2.03 | CCN(CC)C(=O)[C@]1(c2ccccc2)C[C@@H]1CN
1.51 | O=c1cc(CSc2nc3ccccc3[nH]2)occ1O
3.53 | COc1cccc(C(O)C(C(=O)O)c2ccc(-c3ccccc3)cc2)c1 (stereo not given)
-0.85 | COCCNC(=O)Cn1cnc([N+](=O)[O-])n1
2.23 | CCCc1nc(NCC)nc(N2CCOCC2)n1
0.69 | Nc1nnnn1-c1ccccc1
0.36 | NC(=O)Nc1cccc(O)c1
2 | CCCCC(=O)c1ccncc1
3.51 | COc1cc2ncnc(Nc3cccc(Cl)c3)c2cc1OC

logP | SMILES
2.77 | O=C(O)CCCCON=C(c1cccc(C(F)(F)F)c1)c1ncccn1
3.6 | CNC(=O)c1cn2c(C)c(C)nc2c2c1CCC(c1ccccc1)O2 (stereo not given)
6.9 | CCCC1C(=O)N(CCN(C)C)c2cccc(C(F)(F)F)c2CC1c1ccc(OC)cc1 (stereo not given)
4.14 | CCOC(=O)C1=C(C)NC(C)=C(C(=O)OC)C1c1ccccc1 (stereo not given)
0.18 | CC(=O)N(c1nc(=O)n(C(C)C)c(=O)n1C)C(C)C
2.34 | Fc1ccc(CNc2[nH]cnc3ncnc2-3)cc1
3.6 | O=C(O)C(c1ccc(-c2ccccc2)cc1)C(O)c1ccccc1 (stereo not given)
1.92 | O=C(Cc1c(Cl)cc(Cl)cc1Cl)Oc1coc(CO)cc1=O
-1.96 | NCC(=O)NC(Cc1ccccc1)C(=O)NC(Cc1ccc(O)cc1)C(=O)O (stereo not drawn) (H-Gly-Phe-Tyr-OH; configuration not given here)
1.26 | C1CCC2OC2C1 (stereo not given)
1.96 | O=c1[nH]c(=O)n(Cc2ccc(Cl)cc2Cl)cc1F
1.62 | CCOC(=O)C(CCc1ccccc1)NC(C)C(=O)N1N=C(C(C)(C)C)SC1C(=O)O (stereo not given)
2.64 | OC(CNC1CCCCC1)CON=C(C1CC1)C1CC1 (stereo not given)
1.89 | Cc1nc2c3c(c(C(=O)N(C)C)cn2c1C(=O)N(C)C)CCC(c1ccccc1)O3 (stereo not given)
6.2 | Cc1cc(Cl)c(C(C)C)c(Cl)c1Cl
1.47 | Cc1c(O)c(=O)ccn1CCCOC(=O)c1ccc(F)cc1
0.46 | CC(=O)Nc1ccc(S(=O)(=O)Nc2nc(C)c(C)o2)cc1
3.52 | COC1C(OC(C)=O)CC(=O)OC(C)CC=CC=CC(=O)C(C)CC(CC=O)C1OC1OC(C)C(OC2CC(CO)C(OC(=O)CC(C)C)C(C)O2)C(N(C)C)C1O (stereo not given)
4.15 | Clc1ccc(N2CCN(CCCOn3nnc4ccccc43)CC2)cc1
3.94 | COCCOC(=O)C1=C(C)NC(C)=C(C(=O)OC(C)C)C1c1cccc2c1OCO2 (stereo not given)
-1.41 | CCC(C)C(N)C(=O)NC(C(=O)NC(C(=O)NC(C(=O)O)C(C)C)C(C)C)C(C)CC (stereo not given) (H-IIVV-OH; configuration not given here)
-0.44 | CCc1c(O)c(=O)ccn1CCCO
0.75 | Nc1nnnn1-c1ccc(F)cc1

logP | SMILES
0.54 | CC(C)NCC(O)COc1ccc(NC=O)cc1 (stereo not given)
6.6 | C=CCC1C(=O)N(CCN(C)C)c2cccc(C(F)(F)F)c2CC1c1ccc(OC)cc1 (stereo not given)
4.8 | COc1ccc(CCNCC(O)COc2ccc(-c3nc(-c4cccs4)c[nH]3)cc2C)cc1OC (stereo not given)
0.94 | CSc1ncc([N+](=O)[O-])n1C
1.19 | CCCCNC(C)CO (stereo not given)
3.45 | Clc1cccc(N2CCN(CCn3nnc4ccccc43)CC2)c1
1.45 | CC(C)NCC(O)CN1C(=O)COc2ccccc21 (stereo not given)
-0.42 | OCC1OC(Oc2ccc(F)cc2)C(O)C(O)C1O (stereo not given)
1.01 | N#Cc1cccc(Cn2ccnc2)c1
0.9 | COC(=O)C(C)NP(=O)(OCC1C=CC(n2cc(C)c(=O)[nH]c2=O)O1)Oc1ccc([N+](=O)[O-])cc1 (stereo not given)
1.76 | COc1ccc(Nc2nc(N)nc(O)n2)cc1OC
3.19 | Cc1ccc(OCC(O)C(C)NC(C)C)c2c1CCC2 (stereo not given)
2.44 | COc1cc(SC)ccc1-c1cn2cccnc2n1
4.75 | CCCC(=NOCC)C1=C(O)CC(c2ccccc2)(c2ccccc2)OC1=O
-0.42 | CC(C)CC(N)C(=O)NC(CC(C)C)C(=O)NCC(=O)NC(Cc1ccccc1)C(=O)O (stereo not given) (H-LLGF-OH; configuration not given here)
-0.49 | COCCCNC(=O)Cn1cnc([N+](=O)[O-])n1
4.47 | Clc1nc(-c2ccccc2)nc2ccccc12
3.19 | COc1ccc(-c2cc(=O)ss2)cc1
3.21 | COc1ccccc1N1CCN(CCNCC(O)CON=C(C2CC2)C2CC2)CC1 (stereo not given)
3.12 | CCOC(=O)Nc1ccc2cc3ccc4c(c3nc2c1)COCN4C(=O)OCC
-2.23 | CC(C)CC(NC(=O)C(C)NC(=O)C(C)NC(=O)C(C)NC(=O)C(N)Cc1ccccc1)C(=O)O (stereo not given) (H-FAAAL-OH; configuration not given here)
2.1 | COc1cccc(CNc2ncnc3nc[nH]c23)c1
1.24 | Cc1cccc(-n2nnnc2N)c1

logP | SMILES
2.31 | Fc1cccc(CNc2ncnc3nc[nH]c23)c1
0.9 | CCOC(=O)c1cnc2ccc(C)cn2c1=O
0.36 | Cc1nc2ccccc2c(=O)n1CC(=O)N1CCOCC1
4.31 | CN(C)CCC(c1ccccc1)c1ccccc1
3.14 | CCN(CC)c1ccc(-n2c(C(F)(F)F)nn(C)c2=S)cn1
1.73 | OCCCCCCCNc1[nH]cnc2ncnc1-2
4.04 | CCC(=O)[C@@]1(C)CC[C@H]2[C@@H]3CCC4=CC(=O)CCC4=C3CC[C@@]21C
1.3 | COCCOCCOCCOc1ccc(C2=NC(C)(C(=O)O)CS2)c(O)c1 (stereo not given)
1.38 | COC(=O)C(C)(C)S(=O)(=O)c1ccc([N+](=O)[O-])cc1
3.22 | COc1ccc(CCNCC(O)COc2ccc(-c3nc(C)c(C)[nH]3)cc2)cc1OC (stereo not given)
5.49 | CCOc1cc2ncnc(Nc3cc(F)cc(C(F)(F)F)c3)c2cc1OCC
1.93 | Cn1ccnc1CC1COc2ccccc2O1 (stereo not given)
5.31 | CCCCCOc1ccc(NC(=O)OCCN2CCCCC2)cc1
3.37 | Cc1cccc(Nc2ccncc2S(=O)(=O)NC(=O)NC(C)C)c1
2.24 | CC(C)C1(C)N=C(c2ncc(-c3ccccc3)cc2C(=O)O)NC1=O (stereo not given)
2.87 | CN(C)CCOc1ccccc1Cl
3.03 | Cc1ccc(CO)c(C=NNC(=O)c2cccs2)c1O
1.3 | CC(C)(C)[N+]([O-])=Cc1cccc([N+](=O)[O-])c1
5.3 | COc1ccc(C2Cc3c(C(=O)OCc4ccccc4)cccc3N(CCN(C)C)C(=O)C2OC(C)=O)cc1 (stereo not given)
-0.24 | OCCCCCNc1ncnc2c1ncn2C1OC(CO)C(O)C1O (stereo not given)

SMILES | logP
CC(C)=CC1C(C(=O)OCc2cccc(I)c2)C1(C)C (stereo not given) | 6.61
Clc1cc(Cl)c2c(c1)Oc1c(ccc(Cl)c1Cl)O2 | 6.43
S=C=NCCCCc1ccccc1 | 4
C=CCc1c(OC)cc(Cc2cnc(N)nc2N)cc1OCC | 2.66
COc1cccc2c1OP(=O)(OCC1C=CC(n3cc(C)c(=O)[nH]c3=O)O1)OC2 (stereo not given) | 0.15
O=C1CC=C2C3CC4N(CCC45c4ccccc4N1C25)C/C3=C\CO (stereo not given) | 1.37
Cc1ccc(C)c(OCC2CN=C(N)O2)c1 (stereo not given) | 2.29
Clc1cc2c(c(Cl)c1Cl)Oc1c(Cl)ccc(Cl)c1O2 | 6.24
CCCCCN(CCCCC)CC(O)c1ccccc1 (stereo not given) | 2.86
CNC1CCc2c(OC)cccc2C1C (stereo not given) | 2.42
CCCCCCN=C=S | 3.98
Clc1cc(Br)cc(Cl)c1N=C1NCCN1 | 2.46
CCCN(CCC)C1CCc2c(O)cccc2C1 (stereo not given) | 3.58
